Data set [1] concerns the target T1, D(2) dopamine receptor (Rattus norvegicus, UniProt P61169). Briefly: Binding affinity against Dopamine receptor D2 from CHO-K1 cells, using [3H]U-86,170 as the radioligand. It is filed as cell-based.
Data set [2] concerns Rattus norvegicus. Briefly: The compound was tested in vivo for DOPA accumulation in hemispheres (cortex) against reserpine-pretreated rats;I= inactive at the highest dose tested. It is filed as functional, organism-based.
Data set [3] concerns Rattus norvegicus. As to the kind of experiment: compound was tested in vivo for 5-HTP accumulation in limbic system against reserpine-pretreated rats; inactive at the highest dose tested. It is filed as functional.
Data set [4] deals with T2, D(3) dopamine receptor (Rattus norvegicus, UniProt P19020). As to the kind of experiment: Binding affinity against Dopamine receptor D3 from CHO-K1 cells, using [3H]spiperone as the radioligand. The data set is classed as cell-based. The conditions noted are these: read-out: Ki.
T2 sequence (P19020 whole entry): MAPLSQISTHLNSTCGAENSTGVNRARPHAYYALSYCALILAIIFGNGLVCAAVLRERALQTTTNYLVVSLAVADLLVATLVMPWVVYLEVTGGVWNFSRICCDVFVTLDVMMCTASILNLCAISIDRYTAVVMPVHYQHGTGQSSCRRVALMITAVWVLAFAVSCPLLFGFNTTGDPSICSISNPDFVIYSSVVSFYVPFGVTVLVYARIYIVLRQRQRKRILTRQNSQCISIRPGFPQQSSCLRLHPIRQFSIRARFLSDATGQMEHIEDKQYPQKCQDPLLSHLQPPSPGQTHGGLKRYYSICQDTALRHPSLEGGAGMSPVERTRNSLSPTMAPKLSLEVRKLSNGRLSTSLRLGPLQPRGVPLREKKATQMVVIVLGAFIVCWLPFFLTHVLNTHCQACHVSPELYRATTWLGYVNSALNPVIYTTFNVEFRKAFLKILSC
The target in data set [5] is T3, 5-hydroxytryptamine receptor 1A (Rattus norvegicus, UniProt P19327).
T3 sequence (P19327 whole entry): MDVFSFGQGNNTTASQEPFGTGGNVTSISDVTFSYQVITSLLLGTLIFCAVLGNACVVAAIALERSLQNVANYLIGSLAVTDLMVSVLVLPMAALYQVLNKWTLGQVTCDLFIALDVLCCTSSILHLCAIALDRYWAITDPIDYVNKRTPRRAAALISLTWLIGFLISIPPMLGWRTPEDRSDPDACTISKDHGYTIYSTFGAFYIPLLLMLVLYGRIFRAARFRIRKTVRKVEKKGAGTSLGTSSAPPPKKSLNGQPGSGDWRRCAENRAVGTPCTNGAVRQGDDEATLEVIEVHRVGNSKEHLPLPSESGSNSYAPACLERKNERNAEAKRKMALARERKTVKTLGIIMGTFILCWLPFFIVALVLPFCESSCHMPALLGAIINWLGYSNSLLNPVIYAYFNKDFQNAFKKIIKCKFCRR
As to the kind of experiment: Binding affinity against 5-hydroxytryptamine 1A receptor from CHO-K1 cells, using [3H]8-OH-DPAT as the radioligand. It is filed as cell-based.

Data set [6] has as its system Rattus norvegicus. Briefly: compound was tested in vivo for 5-HTP accumulation in hemispheres (cortex) against reserpine-pretreated rats; inactive at the highest dose tested. It is filed as functional.
The target in data set [7] is 5-hydroxytryptamine receptor 1D (Homo sapiens, UniProt P28221). Briefly: Binding affinity against 5-hydroxytryptamine 1D receptor alpha expressed in CHO-K1 cells, using [3H]-5-HT as the radioligand. It is filed as cell-based. The following applies: read-out: Ki.
5-hydroxytryptamine receptor 1D, sequence (P28221 whole entry): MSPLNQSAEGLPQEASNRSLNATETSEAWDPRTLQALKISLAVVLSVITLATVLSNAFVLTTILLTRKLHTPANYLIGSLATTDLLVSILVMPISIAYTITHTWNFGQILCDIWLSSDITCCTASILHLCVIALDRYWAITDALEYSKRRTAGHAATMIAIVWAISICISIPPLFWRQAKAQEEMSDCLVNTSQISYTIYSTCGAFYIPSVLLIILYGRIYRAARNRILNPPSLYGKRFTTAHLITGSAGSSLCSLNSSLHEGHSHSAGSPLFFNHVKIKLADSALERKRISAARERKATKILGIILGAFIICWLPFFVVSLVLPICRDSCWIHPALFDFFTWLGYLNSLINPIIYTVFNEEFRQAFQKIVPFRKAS
For data set [8], the system named is Rattus norvegicus. As to the kind of experiment: compound was tested in vivo for 5-HTP accumulation in corpus striatum against reserpine-pretreated rats, activity expressed as ED50; inactive at the highest dose tested. The data set is classed as functional.
Data set [9] addresses 5-hydroxytryptamine receptor 1B (Homo sapiens, UniProt P28222). As to the kind of experiment: Binding affinity against 5-hydroxytryptamine 1D receptor beta expressed in CHO-K1 cells, using [3H]5-HT as the radioligand. It is filed as cell-based. The following applies: read-out: Ki.
The subject of data set [10] is Rattus norvegicus. Briefly: The Compound was tested in vivo for DOPA accumulation in limbic system against reserpine-pretreated rats; P=significant partial reduction only at the highest dose tested (50). The data set is classed as functional, organism-based.
For data set [11], the system named is Rattus norvegicus. As to the kind of experiment: The Compound was tested in vivo for DOPA accumulation in hemispheres (cortex) against reserpine-pretreated rats; P=significant partial reduction only at the highest dose tested (50). The data set is classed as functional, organism-based.
Data set [12] has as its system Rattus norvegicus. Briefly: Compound was tested in vivo for 5-HTP accumulation in hemispheres (cortex) against reserpine-pretreated rats; P=significant partial reduction only at the highest dose tested (50). The data set is classed as functional, organism-based.
For data set [13], the target named is T1, D(2) dopamine receptor. The following applies: cho-k1.
The test system of data set [14] is Rattus norvegicus. As to the kind of experiment: Compound was tested in vivo for DOPA accumulation in corpus striatum against reserpine-pretreated rats;P= significant partial reduction only at the highest dose tested (50). It is filed as functional, organism-based.
The test system of data set [15] is Rattus norvegicus. Briefly: Compound was tested in vivo for 5-HTP accumulation in corpus striatum against reserpine-pretreated rats; P=significant partial reduction only at the highest dose tested (50). The data set is classed as functional, organism-based.
The test system of data set [16] is Rattus norvegicus. As to the kind of experiment: Compound was tested in vivo for 5-HTP accumulation in limbic system against reserpine-pretreated rats; P=significant partial reduction only at the highest dose tested (50). It is filed as functional, organism-based.
Data set [17] can be described thus: tmax in hours at a iv dose of 54.0(pmol/g/h). It is filed as ADME, organism-based. The following applies: in vivo.
The test system of data set [18] is Rattus norvegicus. Briefly: In vivo for DOPA accumulation in corpus striatum against reserpine-pretreated rats. It is filed as functional.
Data set [19] deals with Rattus norvegicus. As to the kind of experiment: Bioavailability in male Sprague-Dawley rats, after the po administration at a dose of 10.0(pmol/g/h). The data set is classed as ADME, organism-based. The following applies: in vivo.
For data set [20], the system named is Rattus norvegicus. As to the kind of experiment: In vivo for 5-HTP accumulation in hemispheres (cortex) against reserpine-pretreated rats. The data set is classed as functional.
In data set [21] the test system is Rattus norvegicus. Briefly: In vivo for 5-HTP accumulation in corpus striatum against reserpine-pretreated rats. The data set is classed as functional.
The test system of data set [22] is Rattus norvegicus. Briefly: Bioavailability in male Sprague-Dawley rats, after the iv administration at a dose of 54.0(pmol/g/h). The conditions noted are these: in vivo. It is filed as ADME, organism-based.
Data set [23] is described as follows: Bioavailability in rat plasma following iv/po dose. The data set is classed as ADME, organism-based.
Data set [24] concerns Rattus norvegicus. As to the kind of experiment: In vivo for 5-HTP accumulation in limbic system against reserpine-pretreated rats. The data set is classed as functional.
Data set [25] is described as follows: tmax in hours at a dose of 10.0(pmol/g/h). The data set is classed as ADME.
Data set [26] has as its system Rattus norvegicus. Briefly: In vivo for DOPA accumulation in limbic system against reserpine-pretreated rats. The data set is classed as functional.
The subject of data set [27] is Rattus norvegicus. Briefly: The Compound was tested in vivo for DOPA accumulation in hemispheres (cortex) against reserpine-pretreated rats;I= inactive at the highest dose (12.5). The data set is classed as functional, organism-based.
The test system of data set [28] is Rattus norvegicus. As to the kind of experiment: compound was tested in vivo for 5-HTP accumulation in limbic system against reserpine-pretreated rats,. The data set is classed as functional.
For data set [29], the system named is Rattus norvegicus. As to the kind of experiment: compound was tested in vivo for 5-HTP accumulation in corpus striatum against reserpine-pretreated rats, activity expressed as ED50. It is filed as functional.
Data set [30] has as its system Rattus norvegicus. As to the kind of experiment: compound was tested in vivo for DOPA accumulation in corpus striatum against reserpine-pretreated rats; P=significant partial reduction only at the highest dose tested (12.5). It is filed as functional, organism-based.
Data set [31] concerns Rattus norvegicus. As to the kind of experiment: compound was tested in vivo for 5-HTP accumulation in hemispheres (cortex) against reserpine-pretreated rats(. The data set is classed as functional.
Data set [32] has as its system Rattus norvegicus. As to the kind of experiment: The compound was tested in vivo for DOPA accumulation in hemispheres (cortex) against reserpine-pretreated rats; I= inactive at the highest dose tested (12.5). It is filed as functional, organism-based.
For data set [33], the target named is T1, D(2) dopamine receptor. As to the kind of experiment: Binding affinity against Dopamine receptor D2 expressed in CHO-K1 cells, using [3H]U-86170 as the radioligand. The data set is classed as cell-based.
Data set [34] has as its target T2, D(3) dopamine receptor. As to the kind of experiment: The compound was tested in vitro for binding affinity against cloned mammalian Dopamine receptor D3 expressed in CHO cells by, using [3H]spiperone as radioligand. The data set is classed as cell-based.
For data set [35], the system named is Rattus norvegicus. Briefly: Compound was tested in vivo for DOPA accumulation in corpus striatum against reserpine-pretreated rats. The data set is classed as functional.
Data set [36] deals with Rattus norvegicus. Briefly: The Compound was tested in vivo for DOPA accumulation in hemispheres (cortex) against reserpine-pretreated rats;I= inactive at the highest dose tested (50). It is filed as functional, organism-based.

Active and inactive are the calls of the source. The rule behind the calls is not given here.

5-hydroxytryptamine receptor 1B, sequence (P28222 whole entry): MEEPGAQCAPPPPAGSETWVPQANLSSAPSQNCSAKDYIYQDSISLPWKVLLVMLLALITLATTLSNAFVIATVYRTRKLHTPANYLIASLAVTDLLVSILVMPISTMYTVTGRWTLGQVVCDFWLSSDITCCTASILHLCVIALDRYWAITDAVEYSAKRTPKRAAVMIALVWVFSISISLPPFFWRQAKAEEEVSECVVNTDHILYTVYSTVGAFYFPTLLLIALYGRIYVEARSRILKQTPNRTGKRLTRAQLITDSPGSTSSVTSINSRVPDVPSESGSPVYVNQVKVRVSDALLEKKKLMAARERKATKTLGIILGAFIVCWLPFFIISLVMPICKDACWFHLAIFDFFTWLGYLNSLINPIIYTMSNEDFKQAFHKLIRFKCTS
T1 sequence (P61169 whole entry): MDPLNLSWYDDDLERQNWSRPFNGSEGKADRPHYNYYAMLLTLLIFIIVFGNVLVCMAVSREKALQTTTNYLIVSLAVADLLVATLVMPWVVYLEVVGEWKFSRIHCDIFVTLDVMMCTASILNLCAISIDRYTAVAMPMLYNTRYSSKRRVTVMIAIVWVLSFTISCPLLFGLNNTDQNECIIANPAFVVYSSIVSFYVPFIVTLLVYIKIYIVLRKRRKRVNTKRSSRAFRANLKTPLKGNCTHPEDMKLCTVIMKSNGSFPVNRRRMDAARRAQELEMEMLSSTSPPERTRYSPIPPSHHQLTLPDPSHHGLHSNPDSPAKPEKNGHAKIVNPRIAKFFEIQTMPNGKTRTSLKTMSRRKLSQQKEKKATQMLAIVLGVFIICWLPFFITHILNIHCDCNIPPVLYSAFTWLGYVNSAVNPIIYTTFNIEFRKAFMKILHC

In general, Ki refers to a measure of affinity in units of concentration, obtained from inhibition or displacement. Usually ED50 stands for the midpoint of the dose-response relation. On to `CCCN(CCC)[C@H]1CCc2cc(F)c3[nH]cc(C=O)c3c2C1`, for which the Ki at D(2) dopamine receptor [1] turned out to be 199 nM; on D(3) dopamine receptor [4] it was 78 nM; in data set [5], 0.8 nM; in [7], 34 nM; in data set [9] it was 179 nM. Further, the ED50 entry with Rattus norvegicus [2] is “inactive”. Also, the ED50 came out at 0.23 µmol/kg in the data set with Rattus norvegicus [3], 0.32 µmol/kg in the data set with Rattus norvegicus [6] and 0.17 µmol/kg with Rattus norvegicus [8].
Take `CCCN(CCC)C1CCc2ccc3[nH]cc(C(=O)C(N)=O)c3c2C1` (stereo unspecified): the ED50 result in the data set on Rattus norvegicus [10], in the data set with Rattus norvegicus [11], with Rattus norvegicus [12], with Rattus norvegicus [14], with Rattus norvegicus [15] and in the data set with Rattus norvegicus [16] was “Weak activity” throughout. The Ki entry on D(2) dopamine receptor [13] is “Not Active”; in data set [5], 24 nM; in data set [7] it was 87 nM; in data set [9], 552 nM.
By Tmax is commonly meant the time at which the peak concentration occurs. In general, bioavailability refers to the share of a dose that reaches the circulation, judged against a reference dose that is usually intravenous. A high value points to much systemic uptake. In the case of `CCCN(CCC)C1CCc2cc(F)c3[nH]cc(C#N)c3c2C1` (stereo unspecified), the Ki at D(2) dopamine receptor [1] worked out at 72 nM; on D(3) dopamine receptor [4], 63 nM; in data set [5], 2.3 nM; in data set [7] it was 8.6 nM; in data set [9], 121 nM. The Tmax amounted to 2 h in data set [17] and 33 h in [25]. Further, the ED50 worked out at 2.1 µmol/kg with Rattus norvegicus [18]; 0.46 µmol/kg in the data set with Rattus norvegicus [20]; 0.43 µmol/kg in the data set on Rattus norvegicus [21]; 0.52 µmol/kg in the data set on Rattus norvegicus [24]; 0.55 µmol/kg in the data set with Rattus norvegicus [26]. For the same compound, the AUC came to 48 pM ml-1 in the data set with Rattus norvegicus [19] and 238 pM ml-1 in the data set with Rattus norvegicus [22]. Besides, the bioavailability in [23] came out at 8.1%. The ED50 result in the data set with Rattus norvegicus [27] is “inactive”.
With `CCCN(CCC)C1CCc2cc(F)c3[nH]cc(C=O)c3c2C1` (stereo unspecified), the 50% effective dose (ED50) with Rattus norvegicus [28] was 0.079 µmol/kg; with Rattus norvegicus [29], 0.042 µmol/kg; in the data set with Rattus norvegicus [30] it was “Weak activity”; in the data set with Rattus norvegicus [31], 0.027 µmol/kg. For the same compound, the Ki in [5] turned out to be 0.5 nM; in data set [7], 4.6 nM; at D(2) dopamine receptor [33], 65 nM; on D(3) dopamine receptor [34], 65 nM; in data set [9], 82 nM. Besides, the ED50 result with Rattus norvegicus [32] is “inactive”.
As for `CCCN(CCC)C1CCc2ccc3[nH]cc(C(=O)C(F)(F)F)c3c2C1` (stereo unspecified), the 50% effective dose (ED50) was determined as 12.6 µmol/kg in the data set with Rattus norvegicus [35]; 16.3 µmol/kg in the data set on Rattus norvegicus [20]; 6.5 µmol/kg in the data set with Rattus norvegicus [21]; 12.6 µmol/kg with Rattus norvegicus [24]; 20.8 µmol/kg in the data set with Rattus norvegicus [26]. In addition, the Ki at D(2) dopamine receptor [1] is 544 nM; at D(3) dopamine receptor [4], 675 nM; in data set [5], 20 nM; in data set [7], 112 nM; in [9] it was 279 nM. In the data set on Rattus norvegicus [36], the ED50 result is “inactive”.

The values are drawn from ChEMBL document CHEMBL1128401, “Structure-activity relationships in the 8-amino-6,7,8,9-tetrahydro-3H-benz[e]indole ring system. 1. Effects of substituents in the aromatic system on serotonin and dopamine receptor subtypes” (J Med Chem, 1995).
